Measurements published in ChEMBL document CHEMBL1201862, “PubChem BioAssay data set” (2004).
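Dose response: 5 concentrations. Exposure: 48 h. Format: 96-well plates. Endpoint: linear interpolation; highest concentration if not reached. At the GI50, growth is halved.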 Activity calls are given as the source filed them. Cut-off read from the data, not from the text of the source: active = GI50 up to about 1.1 µM and inactive = higher.

How the values were obtained:
Assay in all cases: DTP human tumour cell line panel, 48 h
[1] = test system: CCRF-CEM
[2] = test system: SK-OV-3
[3] = test system: NCI-H226
[4] = test system: RPMI-8226
[5] = test system: UO-31
[6] = test system: OVCAR-8
[7] = test system: DMS-273
[8] = test system: K562
[9] = test system: ACHN
[10] = test system: HCT-15
[11] = test system: HCT-116
[12] = test system: A498
[13] = test system: A549
[14] = test system: OVCAR-3
[15] = test system: NCI-H522
[16] = test system: SNB-19
[17] = test system: SN12C
[18] = test system: UACC-257
[19] = test system: SR
[20] = test system: Hs-578T

Row | Compound | GI50 [1] | GI50 [2] | GI50 [3] | GI50 [4] | GI50 [5] | GI50 [6] | GI50 [7] | GI50 [8] | GI50 [9] | GI50 [10] [µM] | GI50 [11] | GI50 [12] | GI50 [13] | GI50 [14] | GI50 [15] | GI50 [16] | GI50 [17] | GI50 [18] | GI50 [19] | GI50 [20]
1 | C/C(CN1C(=O)c2ccccc2C1=O)=N\NS(=O)(=O)c1ccc(Br)cc1 | > 100 µM (inactive) | > 100 µM (inactive) | > 100 µM (inactive) | > 100 µM (inactive) | > 100 µM (inactive) | > 100 µM (inactive) | > 100 µM (inactive) | > 100 µM (inactive) | > 100 µM (inactive) | > 100 | > 100 µM (inactive) | > 100 µM (inactive) | > 100 µM (inactive) | > 100 µM (inactive) | > 100 µM (inactive) | > 100 µM (inactive) | > 100 µM (inactive) | > 100 µM (inactive) |  | 
2 | CC(C)(C)/N=C1/CC(C)(C)c2ccccc2/C(=N\c2ccccc2)S1 | 26.9 µM (inactive) | 57 µM (inactive) | 47.3 µM (inactive) | 11.2 µM (inactive) | 31.8 µM (inactive) | 41.8 µM (inactive) | 32.1 µM (inactive) | 26.4 µM (inactive) | 28.2 µM (inactive) | 37.2 | 33.4 µM (inactive) | 43 µM (inactive) | 36.4 µM (inactive) | 33.1 µM (inactive) | 15.2 µM (inactive) | 36.2 µM (inactive) | 29.4 µM (inactive) | 30 µM (inactive) |  | 
3 | NC1=NN(c2ccccc2)C(=O)C1C(=O)CCC(=O)Nc1cccc(C(F)(F)F)c1 (centres undefined) | > 100 µM (inactive) | > 100 µM (inactive) | > 100 µM (inactive) |  | > 100 µM (inactive) | > 100 µM (inactive) | > 100 µM (inactive) | 35.2 µM (inactive) | 23.1 µM (inactive) | 30.8 | > 100 µM (inactive) |  | > 100 µM (inactive) | > 100 µM (inactive) |  | > 100 µM (inactive) | > 100 µM (inactive) | > 100 µM (inactive) | > 100 µM (inactive) | 
4 | O=c1[nH]c(=O)n(C2CC(O)C(CO)O2)cc1COCC(F)(F)F (centres undefined) | 86.5 µM (inactive) | > 100 µM (inactive) |  | > 100 µM (inactive) | > 100 µM (inactive) | > 100 µM (inactive) | > 100 µM (inactive) | > 100 µM (inactive) | > 100 µM (inactive) |  |  | > 100 µM (inactive) | > 100 µM (inactive) | > 100 µM (inactive) | > 100 µM (inactive) | > 100 µM (inactive) | > 100 µM (inactive) | > 100 µM (inactive) |  | 
5 | CC[C@@H](/C=C\CCC1(C[C@@H](N)CCC=C(C)C)OCCO1)O[Si](C(C)C)(C(C)C)C(C)C | 11.6 µM (inactive) | 20 µM (inactive) | 17.4 µM (inactive) | 17.9 µM (inactive) | 17.6 µM (inactive) | 11.9 µM (inactive) |  | 10.8 µM (inactive) | 18 µM (inactive) | 18.9 | 17.1 µM (inactive) | 18.2 µM (inactive) | 18.2 µM (inactive) | 18.7 µM (inactive) | 20 µM (inactive) | 18.5 µM (inactive) | 17.3 µM (inactive) | 19.3 µM (inactive) | 3.27 µM (inactive) | 26 µM (inactive)
6 | Cc1c(C)c(S(=O)(=O)N(CCCCN)OCCCN)c(C)c2c1OC(C)(C)CC2 | 16.4 µM (inactive) | 15.6 µM (inactive) | 13.1 µM (inactive) | 23.3 µM (inactive) | 19.4 µM (inactive) | 18.7 µM (inactive) |  | 32.4 µM (inactive) | 20.8 µM (inactive) | 21.5 | 16.6 µM (inactive) | 16 µM (inactive) | 19.2 µM (inactive) | 13.3 µM (inactive) | 13.1 µM (inactive) | 15.1 µM (inactive) | 29.6 µM (inactive) | 22.2 µM (inactive) | 42.7 µM (inactive) | 13.2 µM (inactive)
7 | O=C1C[C@H]2CC3(CC[C@H]2CN1)OCCO3 | > 100 µM (inactive) | > 100 µM (inactive) |  | > 100 µM (inactive) | > 100 µM (inactive) | > 100 µM (inactive) | > 100 µM (inactive) | > 100 µM (inactive) |  | > 100 | > 100 µM (inactive) | > 100 µM (inactive) | > 100 µM (inactive) | > 100 µM (inactive) | > 100 µM (inactive) | > 100 µM (inactive) | > 100 µM (inactive) | > 100 µM (inactive) |  | 
8 | Nc1ncnc2c1ncn2[C@@H]1O[C@H](C(=O)O)[C@@H](O)[C@H]1O [5'-CARBOXY ADENOSINE] | > 100 µM (inactive) | > 100 µM (inactive) | > 100 µM (inactive) | > 100 µM (inactive) | > 100 µM (inactive) | > 100 µM (inactive) |  | > 100 µM (inactive) | > 100 µM (inactive) | > 100 | > 100 µM (inactive) | > 100 µM (inactive) | > 100 µM (inactive) | > 100 µM (inactive) | > 100 µM (inactive) | > 100 µM (inactive) | > 100 µM (inactive) | > 100 µM (inactive) | > 100 µM (inactive) | > 100 µM (inactive)
9 | Cc1ccc2c(O)cc(-c3cccs3)nc2n1 | 15.3 µM (inactive) | 30.3 µM (inactive) | 8.91 µM (inactive) | 5.05 µM (inactive) | 8.61 µM (inactive) | 18.2 µM (inactive) |  | 5.81 µM (inactive) | 33 µM (inactive) | 3.78 | 4.81 µM (inactive) | > 54.8 µM (inactive) | 9.79 µM (inactive) | 14.3 µM (inactive) | 4.58 µM (inactive) | 11.7 µM (inactive) | 19.1 µM (inactive) | > 100 µM (inactive) | 2.05 µM (inactive) | 11.6 µM (inactive)
10 | O=C(CCC(=O)Nc1ccc(Cl)c(Cl)c1)CC(=O)c1ccc(Cl)cc1 | > 100 µM (inactive) | > 100 µM (inactive) | > 100 µM (inactive) | > 100 µM (inactive) | > 100 µM (inactive) | > 100 µM (inactive) | > 100 µM (inactive) | > 100 µM (inactive) | > 100 µM (inactive) | > 100 | > 100 µM (inactive) | > 100 µM (inactive) | > 100 µM (inactive) | > 100 µM (inactive) | > 100 µM (inactive) | > 100 µM (inactive) | > 100 µM (inactive) | > 100 µM (inactive) |  | 
11 | O=C(c1ccc([N+](=O)[O-])cc1[N+](=O)[O-])N(/N=C/C=C/c1ccccc1)c1nnc(-c2ccccc2)c(-c2ccccc2)n1 | 24.5 µM (inactive) | 74.8 µM (inactive) | 32.7 µM (inactive) | 20.5 µM (inactive) | 18.5 µM (inactive) | 22.7 µM (inactive) | 23.7 µM (inactive) | 20.1 µM (inactive) | 24.3 µM (inactive) | 29 |  | 30.5 µM (inactive) | 29.4 µM (inactive) | 21 µM (inactive) | 22 µM (inactive) | 94.4 µM (inactive) | 63.7 µM (inactive) | 31.5 µM (inactive) |  | 
